We go through seven compounds from patent US8492425B2, “5-methyl-1-(naphthalen-2-yl)-1H-pyrazoles useful as sigma receptor inhibitors” (Laboratories Del Dr. Esteve, S.A., priority 2008, dated 2013).

The structures appear in SMILES notation. Like-named read-outs stand apart in the source and are kept apart here.

One series addresses T1, sigma-1 receptor (Cavia porcellus, UniProt Q60492).
T1 construct: from tissue; host or cells: guinea pig brain membranes
Briefly: Sigma-1 receptor binding assay, [3H]-(+)-pentazocine displacement in guinea pig brain membranes. The following applies: for IC50: radioligand [3H]-(+)-pentazocine 3.0 nM, 150 min at 37° C., read-out: IC50 (inhibitory concentration); for Ki: read-out: Ki (binding affinity).

T1 sequence (Q60492 whole entry): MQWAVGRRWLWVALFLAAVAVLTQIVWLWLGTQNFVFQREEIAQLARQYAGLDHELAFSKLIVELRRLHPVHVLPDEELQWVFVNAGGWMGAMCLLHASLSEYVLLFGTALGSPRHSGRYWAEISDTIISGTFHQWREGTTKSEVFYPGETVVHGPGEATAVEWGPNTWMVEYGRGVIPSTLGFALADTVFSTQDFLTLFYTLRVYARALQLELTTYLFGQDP

As to `Cc1cc(OCCN2CCOCC2)nn1-c1ccc2ccc(O)cc2c1` (hydrate or solvate) [Compound 4, 4-{2-[1-(7-hydroxynaphthalen-2-yl)-5-methyl-1H-pyrazol-3-yloxy]ethyl}morpholine chlorhydrate], the melting point was 103 to 107 °C.

With `Cc1cc(OCCN2CCOCC2)nn1-c1ccc2c(c1)C=CC(O)C2O` (stereo not shown) [Compound 1, 6-(5-methyl-3-(2-morpholinoethoxy)-1H-pyrazol-1-yl)-1,2-dihydronaphthalene-1,2-diol], the IC50 at sigma-1 receptor (guinea pig brain membranes) was > 1000 nM.

As for `Cc1cc(OCCN2CCOCC2)nn1-c1ccc2cc(O)ccc2c1` [Compound 2, 4-{2-[1-(6-hydroxynaphthalen-2-yl)-5-methyl-1H-pyrazol-3-yloxy]ethyl}morpholine chlorhydrate], at sigma-1 receptor (guinea pig brain membranes), the IC50 is > 1000 nM.

As to `Cc1cc(OCCN2CCOCC2)nn1-c1ccc2c(O)cccc2c1` [Compound 3, 4-{2-[1-(5-hydroxynaphthalen-2-yl)-5-methyl-1H-pyrazol-3-yloxy]ethyl}morpholine], the Ki at sigma-1 receptor is 329 nM.

On to `Cc1cc(OCCN2CCOCC2)nn1-c1ccc2ccc(O)cc2c1` [Compound 4, 4-{2-[1-(7-hydroxynaphthalen-2-yl)-5-methyl-1H-pyrazol-3-yloxy]ethyl}morpholine chlorhydrate], for which the IC50 at sigma-1 receptor (guinea pig brain membranes) is > 1000 nM.

On to `Cc1cc(OCCNCCO)nn1-c1ccc2ccccc2c1` [Compound 5, 2-(2-(5-methyl-1-(naphthalen-2-yl)-1H-pyrazol-3-yloxy)ethylamino)ethanol chlorhydrate], for which the Ki at sigma-1 receptor (guinea pig brain membranes, [3H]-(+)-pentazocine 3.0 nM, calculated from IC50 by the Cheng-Prussof equation) is 102 nM.

For the compound `Cc1cc(OCC[N+]2([O-])CCOCC2)nn1-c1ccc2ccccc2c1` [Compound 6, 4-(2-(5-methyl-1-(naphthalen-2-yl)-1H-pyrazol-3-yloxy)ethyl)morpholine 4-oxide], the IC50 at sigma-1 receptor (guinea pig brain membranes) is > 1000 nM.

The term melting point denotes the temperature, or range, at which the solid turns liquid. The Ki is the dissociation constant of the complex between target and ligand, obtained from inhibition or displacement.
